The target in assay [1] is Sodium-dependent noradrenaline transporter (Homo sapiens, UniProt P23975). Kind of assay: Binding affinity to human norepinephrine transporter by ligand displacement assay.
The target of assay [2] is Sodium-dependent dopamine transporter (Homo sapiens) (UniProt Q01959). As to the kind of experiment: Binding affinity to dopamine transporter (unknown origin) at 10 uM by ligand displacement assay.
Assay [3] addresses Sodium-dependent serotonin transporter (Homo sapiens) (UniProt P31645). As to the kind of experiment: Binding affinity to serotonin transporter (unknown origin) at 10 uM by ligand displacement assay.
In assay [4] the test system is DRG neuron. Kind of assay: Neuronal activity in mouse DRG neurons assessed as amplification of KCl pulse-induced intracellular calcium transient at 90 uM by fluorescence microscopic analysis. In kind it is functional, cell-based.
Assay [5] deals with DRG neuron. Kind of assay: Neuronal activity in mouse DRG neurons assessed as amplification of KCl pulse-induced intracellular calcium transient at 73 uM by fluorescence microscopic analysis. It counts as functional, cell-based. (Calcium flux is commonly read through the fluorescence of an indicator in the cells.)

Calls of active or inactive are those of the source. No cut-off for these calls is given here.

Sequence of Sodium-dependent dopamine transporter (Homo sapiens) (Q01959 whole entry): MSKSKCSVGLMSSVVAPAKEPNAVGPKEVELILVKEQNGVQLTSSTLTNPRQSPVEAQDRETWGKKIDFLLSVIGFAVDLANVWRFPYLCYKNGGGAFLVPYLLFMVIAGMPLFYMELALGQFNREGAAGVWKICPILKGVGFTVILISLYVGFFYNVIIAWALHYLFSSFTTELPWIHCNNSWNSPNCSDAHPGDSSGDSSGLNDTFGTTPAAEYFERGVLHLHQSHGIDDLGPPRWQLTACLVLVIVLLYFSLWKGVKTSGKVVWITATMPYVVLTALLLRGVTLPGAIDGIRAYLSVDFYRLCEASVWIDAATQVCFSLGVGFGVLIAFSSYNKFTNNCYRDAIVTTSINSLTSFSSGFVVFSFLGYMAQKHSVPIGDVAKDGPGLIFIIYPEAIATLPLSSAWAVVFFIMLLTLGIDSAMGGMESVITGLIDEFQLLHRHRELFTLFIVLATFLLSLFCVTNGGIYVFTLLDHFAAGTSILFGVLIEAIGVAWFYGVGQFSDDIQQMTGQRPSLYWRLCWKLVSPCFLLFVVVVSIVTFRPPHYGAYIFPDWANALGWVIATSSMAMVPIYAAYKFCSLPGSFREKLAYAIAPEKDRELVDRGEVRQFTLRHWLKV
Sequence of Sodium-dependent serotonin transporter (Homo sapiens) (P31645 whole entry, looked up): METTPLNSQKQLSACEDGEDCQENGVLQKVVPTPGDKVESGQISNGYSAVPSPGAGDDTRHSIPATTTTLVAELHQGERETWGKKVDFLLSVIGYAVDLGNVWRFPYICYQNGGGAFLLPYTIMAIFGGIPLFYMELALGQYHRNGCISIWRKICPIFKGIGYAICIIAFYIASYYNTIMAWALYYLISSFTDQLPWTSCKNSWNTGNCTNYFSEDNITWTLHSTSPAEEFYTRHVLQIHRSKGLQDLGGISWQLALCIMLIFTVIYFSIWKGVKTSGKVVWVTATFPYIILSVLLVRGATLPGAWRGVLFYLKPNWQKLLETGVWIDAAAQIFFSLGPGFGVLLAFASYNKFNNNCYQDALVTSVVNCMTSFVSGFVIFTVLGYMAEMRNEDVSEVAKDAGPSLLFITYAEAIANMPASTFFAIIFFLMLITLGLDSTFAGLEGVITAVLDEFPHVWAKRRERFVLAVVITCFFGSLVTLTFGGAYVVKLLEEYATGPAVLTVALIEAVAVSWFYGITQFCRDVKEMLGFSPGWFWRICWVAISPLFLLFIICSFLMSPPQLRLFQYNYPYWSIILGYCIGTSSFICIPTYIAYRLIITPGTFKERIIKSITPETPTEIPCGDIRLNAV
Sequence of Sodium-dependent noradrenaline transporter (P23975 whole entry): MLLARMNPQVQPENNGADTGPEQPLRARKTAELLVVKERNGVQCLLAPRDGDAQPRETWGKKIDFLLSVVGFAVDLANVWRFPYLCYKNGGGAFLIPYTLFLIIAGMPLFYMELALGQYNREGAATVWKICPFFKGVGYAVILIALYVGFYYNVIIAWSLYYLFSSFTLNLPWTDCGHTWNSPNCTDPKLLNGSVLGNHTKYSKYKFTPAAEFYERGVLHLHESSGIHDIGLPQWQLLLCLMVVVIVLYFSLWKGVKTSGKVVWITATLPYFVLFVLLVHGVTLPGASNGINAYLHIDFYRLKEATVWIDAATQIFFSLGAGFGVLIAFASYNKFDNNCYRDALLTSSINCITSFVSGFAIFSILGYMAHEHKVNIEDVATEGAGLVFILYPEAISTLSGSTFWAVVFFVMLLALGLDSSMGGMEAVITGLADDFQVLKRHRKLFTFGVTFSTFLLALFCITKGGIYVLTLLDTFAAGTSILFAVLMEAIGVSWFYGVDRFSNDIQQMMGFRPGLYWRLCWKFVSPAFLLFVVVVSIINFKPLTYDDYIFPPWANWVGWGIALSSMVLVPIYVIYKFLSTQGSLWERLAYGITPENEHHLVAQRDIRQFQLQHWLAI

The Ki is the dissociation constant of the complex between target and ligand, obtained from inhibition or displacement. Higher therefore signals a looser hold on the target. As to `O=C(Cc1c[nH]c2ccccc12)C(O)Cc1ccc(O)cc1` (stereo unspecified), the Ki in assay [1] was determined as 867 nM. Further, the inhibition result in assay [2] and in assay [3] was “inactive” in each case.
For `CC(C)CC(O)C(=O)Cc1ccc(O)cc1` (stereo unspecified), in the assay on DRG neuron [4], the result was inactive.
With `O=C(Cc1ccc(O)cc1)C(O)Cc1ccc(O)cc1` (stereo unspecified), in the assay on DRG neuron [5], the result was Active.
In the case of `CC(C)CC(=O)C(O)Cc1ccc(O)cc1` (stereo unspecified), the outcome with DRG neuron [4] was inactive.

For the origin of these results see ChEMBL document CHEMBL2413063, “Neuroactive diol and acyloin metabolites from cone snail-associated bacteria” (Bioorg Med Chem Lett, 2013).
